{"source": "paper PMC9851200", "about": "“Multiparameter phenotypic screening for endogenous TFEB and TFE3 translocation identifies novel chemical series modulating lysosome function” (Autophagy, 2022)", "origin": "cited, not measured here", "design_in_all_cases": "method as in original PKIS2 published data", "key": {"[1]": {"biological_target": "kinases (KINOMEscan panel) (Homo sapiens, UniProt P04049)", "sequence (P04049 whole entry)": "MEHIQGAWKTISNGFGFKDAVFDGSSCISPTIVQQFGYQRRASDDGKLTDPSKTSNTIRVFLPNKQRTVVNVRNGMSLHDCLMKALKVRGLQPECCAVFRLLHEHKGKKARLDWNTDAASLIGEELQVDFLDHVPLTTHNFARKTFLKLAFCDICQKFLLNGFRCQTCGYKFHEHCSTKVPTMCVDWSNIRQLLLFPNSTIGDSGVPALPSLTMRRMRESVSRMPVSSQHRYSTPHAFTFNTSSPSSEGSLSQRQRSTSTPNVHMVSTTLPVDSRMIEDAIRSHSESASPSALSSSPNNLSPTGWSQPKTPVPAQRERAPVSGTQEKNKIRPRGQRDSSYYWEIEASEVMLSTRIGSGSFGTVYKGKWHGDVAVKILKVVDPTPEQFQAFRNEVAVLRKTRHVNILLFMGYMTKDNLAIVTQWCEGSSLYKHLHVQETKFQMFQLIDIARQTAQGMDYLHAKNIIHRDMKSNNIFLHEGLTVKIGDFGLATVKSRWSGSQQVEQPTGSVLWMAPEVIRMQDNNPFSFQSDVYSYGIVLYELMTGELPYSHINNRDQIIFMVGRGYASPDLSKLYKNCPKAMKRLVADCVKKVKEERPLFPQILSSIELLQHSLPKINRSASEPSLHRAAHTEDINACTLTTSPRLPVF", "conditions": "RAF1; Published KINOMEscan; ref original PKIS2 published data; cited from earlier work"}, "[2]": {"biological_target": "kinases (KINOMEscan panel) (Homo sapiens, UniProt P08069)", "sequence (P08069 31-1367)": "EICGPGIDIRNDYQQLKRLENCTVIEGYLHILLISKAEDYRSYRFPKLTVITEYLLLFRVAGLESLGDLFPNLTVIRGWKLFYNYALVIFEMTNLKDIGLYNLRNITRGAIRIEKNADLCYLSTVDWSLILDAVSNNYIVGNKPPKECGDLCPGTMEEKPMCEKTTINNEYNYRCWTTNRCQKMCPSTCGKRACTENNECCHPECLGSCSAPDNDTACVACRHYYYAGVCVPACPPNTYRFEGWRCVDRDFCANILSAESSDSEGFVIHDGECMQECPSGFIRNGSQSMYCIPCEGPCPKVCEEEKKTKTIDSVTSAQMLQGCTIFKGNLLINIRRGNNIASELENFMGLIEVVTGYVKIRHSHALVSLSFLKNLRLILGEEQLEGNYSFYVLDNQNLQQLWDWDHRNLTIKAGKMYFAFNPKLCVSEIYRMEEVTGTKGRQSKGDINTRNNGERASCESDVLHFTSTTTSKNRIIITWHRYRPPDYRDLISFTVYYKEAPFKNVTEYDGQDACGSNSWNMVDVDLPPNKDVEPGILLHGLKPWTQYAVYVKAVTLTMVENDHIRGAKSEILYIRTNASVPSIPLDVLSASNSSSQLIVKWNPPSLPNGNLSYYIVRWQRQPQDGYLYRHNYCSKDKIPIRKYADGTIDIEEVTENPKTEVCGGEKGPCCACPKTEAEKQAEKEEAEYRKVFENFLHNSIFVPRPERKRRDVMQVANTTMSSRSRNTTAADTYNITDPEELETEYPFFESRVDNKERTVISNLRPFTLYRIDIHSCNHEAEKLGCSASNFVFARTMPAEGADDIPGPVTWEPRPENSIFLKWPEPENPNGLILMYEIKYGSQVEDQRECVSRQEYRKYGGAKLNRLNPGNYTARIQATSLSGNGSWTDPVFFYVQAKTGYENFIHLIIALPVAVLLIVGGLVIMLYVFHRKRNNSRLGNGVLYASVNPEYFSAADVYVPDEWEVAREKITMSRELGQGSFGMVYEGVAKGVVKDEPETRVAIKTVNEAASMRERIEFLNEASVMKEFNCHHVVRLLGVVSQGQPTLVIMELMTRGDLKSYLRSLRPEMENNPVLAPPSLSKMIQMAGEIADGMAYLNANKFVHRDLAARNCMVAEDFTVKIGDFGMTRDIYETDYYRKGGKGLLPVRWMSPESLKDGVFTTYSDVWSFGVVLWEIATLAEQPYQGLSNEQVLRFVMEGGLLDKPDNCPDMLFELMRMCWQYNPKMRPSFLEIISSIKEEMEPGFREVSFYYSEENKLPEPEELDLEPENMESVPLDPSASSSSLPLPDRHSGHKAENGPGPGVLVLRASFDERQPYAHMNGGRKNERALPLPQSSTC", "conditions": "kinase IGF1R; Published KINOMEscan; ref original PKIS2 published data; cited from earlier work"}, "[3]": {"biological_target": "kinases (KINOMEscan panel) (Homo sapiens, UniProt P30291)", "sequence (P30291 whole entry)": "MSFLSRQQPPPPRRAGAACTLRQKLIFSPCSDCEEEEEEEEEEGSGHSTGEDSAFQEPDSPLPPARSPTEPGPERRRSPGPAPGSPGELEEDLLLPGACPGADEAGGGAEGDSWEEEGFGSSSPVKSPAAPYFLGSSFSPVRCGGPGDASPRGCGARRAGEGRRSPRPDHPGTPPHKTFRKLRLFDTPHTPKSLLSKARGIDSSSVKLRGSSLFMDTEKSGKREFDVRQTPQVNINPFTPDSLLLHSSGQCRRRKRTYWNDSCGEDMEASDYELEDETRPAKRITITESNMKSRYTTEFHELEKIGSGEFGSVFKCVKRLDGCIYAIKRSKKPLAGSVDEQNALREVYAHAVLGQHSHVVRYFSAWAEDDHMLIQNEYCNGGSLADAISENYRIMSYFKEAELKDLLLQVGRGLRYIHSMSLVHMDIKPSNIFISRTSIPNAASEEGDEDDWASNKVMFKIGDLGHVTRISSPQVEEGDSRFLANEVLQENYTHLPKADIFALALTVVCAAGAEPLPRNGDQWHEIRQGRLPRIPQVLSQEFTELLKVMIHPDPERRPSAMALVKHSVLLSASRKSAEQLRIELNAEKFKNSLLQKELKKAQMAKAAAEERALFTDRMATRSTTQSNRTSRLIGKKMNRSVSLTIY", "conditions": "WEE1; Published KINOMEscan; ref original PKIS2 published data; cited from earlier work"}, "[4]": {"biological_target": "kinases (KINOMEscan panel) (Homo sapiens, UniProt P41240)", "sequence (P41240 whole entry)": "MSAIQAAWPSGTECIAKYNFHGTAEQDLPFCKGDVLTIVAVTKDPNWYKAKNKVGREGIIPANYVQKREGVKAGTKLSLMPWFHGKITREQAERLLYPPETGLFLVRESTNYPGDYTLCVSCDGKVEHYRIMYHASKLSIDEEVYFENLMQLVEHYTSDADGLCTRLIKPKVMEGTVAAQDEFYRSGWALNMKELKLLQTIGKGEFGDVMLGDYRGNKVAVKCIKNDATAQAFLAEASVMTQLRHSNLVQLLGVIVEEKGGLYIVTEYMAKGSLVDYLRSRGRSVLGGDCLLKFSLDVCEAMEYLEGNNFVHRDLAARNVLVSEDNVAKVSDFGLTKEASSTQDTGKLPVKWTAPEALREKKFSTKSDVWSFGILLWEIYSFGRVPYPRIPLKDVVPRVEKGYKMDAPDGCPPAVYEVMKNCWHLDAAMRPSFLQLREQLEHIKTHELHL", "conditions": "kinase CSK; Published KINOMEscan; ref original PKIS2 published data; cited from earlier work"}, "[5]": {"biological_target": "kinases (KINOMEscan panel) (Homo sapiens, UniProt P49137)", "conditions": "kinase MAPKAPK2; Published KINOMEscan; ref original PKIS2 published data; cited from earlier work"}, "[6]": {"biological_target": "kinases (KINOMEscan panel) (Homo sapiens, UniProt P51451)", "conditions": "kinase BLK; Published KINOMEscan; ref original PKIS2 published data; cited from earlier work"}, "[7]": {"biological_target": "kinases (KINOMEscan panel) (Homo sapiens, UniProt P53350)", "sequence (P53350 whole entry)": "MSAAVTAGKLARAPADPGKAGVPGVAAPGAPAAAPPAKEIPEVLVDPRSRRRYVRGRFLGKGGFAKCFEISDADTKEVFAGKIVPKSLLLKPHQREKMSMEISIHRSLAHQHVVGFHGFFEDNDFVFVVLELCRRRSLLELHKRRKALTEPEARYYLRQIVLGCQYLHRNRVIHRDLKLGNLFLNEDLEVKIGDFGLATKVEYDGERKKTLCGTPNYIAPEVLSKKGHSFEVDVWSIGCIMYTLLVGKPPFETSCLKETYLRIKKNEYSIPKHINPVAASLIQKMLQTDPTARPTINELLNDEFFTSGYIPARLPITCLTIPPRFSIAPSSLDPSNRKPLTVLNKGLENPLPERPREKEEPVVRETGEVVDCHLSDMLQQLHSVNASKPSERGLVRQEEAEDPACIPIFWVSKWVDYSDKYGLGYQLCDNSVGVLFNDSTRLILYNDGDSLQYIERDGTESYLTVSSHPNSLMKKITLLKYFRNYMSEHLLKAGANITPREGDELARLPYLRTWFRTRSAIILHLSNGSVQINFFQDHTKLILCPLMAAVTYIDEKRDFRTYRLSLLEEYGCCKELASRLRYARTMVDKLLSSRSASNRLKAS", "conditions": "PLK1; Published KINOMEscan; ref original PKIS2 published data; cited from earlier work"}, "[8]": {"biological_target": "kinases (KINOMEscan panel) (Homo sapiens, UniProt Q05655)", "sequence (Q05655 whole entry)": "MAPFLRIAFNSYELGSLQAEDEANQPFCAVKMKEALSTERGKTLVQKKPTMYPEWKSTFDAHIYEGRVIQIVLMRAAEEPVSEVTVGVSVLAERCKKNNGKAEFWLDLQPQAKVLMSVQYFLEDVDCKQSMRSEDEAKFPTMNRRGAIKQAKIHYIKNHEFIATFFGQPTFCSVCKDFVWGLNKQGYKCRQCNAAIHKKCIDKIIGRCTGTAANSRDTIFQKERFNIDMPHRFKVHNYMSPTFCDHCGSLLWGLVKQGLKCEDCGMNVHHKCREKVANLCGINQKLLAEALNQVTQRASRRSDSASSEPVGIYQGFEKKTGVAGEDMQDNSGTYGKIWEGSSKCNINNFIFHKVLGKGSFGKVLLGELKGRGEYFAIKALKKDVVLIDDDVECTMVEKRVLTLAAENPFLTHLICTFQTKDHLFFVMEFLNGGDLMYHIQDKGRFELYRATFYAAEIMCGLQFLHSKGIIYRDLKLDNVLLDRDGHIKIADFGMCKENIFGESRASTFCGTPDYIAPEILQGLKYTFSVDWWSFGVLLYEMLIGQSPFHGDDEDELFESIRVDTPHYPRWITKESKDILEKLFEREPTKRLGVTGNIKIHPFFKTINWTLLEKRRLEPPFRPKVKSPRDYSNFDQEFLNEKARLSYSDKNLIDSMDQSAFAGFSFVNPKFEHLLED", "conditions": "kinase PRKCD; Published KINOMEscan; ref original PKIS2 published data; cited from earlier work"}, "[9]": {"biological_target": "kinases (KINOMEscan panel) (Homo sapiens, UniProt Q86V86)", "conditions": "kinase PIM3; Published KINOMEscan; ref original PKIS2 published data; cited from earlier work"}, "[10]": {"biological_target": "kinases (KINOMEscan panel) (Homo sapiens, UniProt Q8NI60)", "sequence (Q8NI60 163-647)": "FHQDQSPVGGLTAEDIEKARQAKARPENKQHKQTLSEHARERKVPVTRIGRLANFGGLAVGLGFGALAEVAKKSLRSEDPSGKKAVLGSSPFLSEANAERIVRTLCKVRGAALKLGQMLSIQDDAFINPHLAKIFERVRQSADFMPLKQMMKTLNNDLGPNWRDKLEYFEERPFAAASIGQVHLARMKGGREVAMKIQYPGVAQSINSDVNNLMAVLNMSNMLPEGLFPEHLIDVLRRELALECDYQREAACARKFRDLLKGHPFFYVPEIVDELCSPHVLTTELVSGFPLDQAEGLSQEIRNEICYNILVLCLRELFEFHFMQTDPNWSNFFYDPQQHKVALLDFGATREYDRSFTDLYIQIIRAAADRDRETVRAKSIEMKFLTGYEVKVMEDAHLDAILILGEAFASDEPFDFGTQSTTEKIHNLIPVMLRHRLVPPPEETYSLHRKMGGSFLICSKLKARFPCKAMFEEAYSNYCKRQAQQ", "conditions": "COQ8A; Published KINOMEscan; ref original PKIS2 published data; cited from earlier work"}, "[11]": {"biological_target": "T1, kinases (KINOMEscan panel) (Homo sapiens, UniProt Q9C098)", "T1 sequence (Q9C098 1-648)": "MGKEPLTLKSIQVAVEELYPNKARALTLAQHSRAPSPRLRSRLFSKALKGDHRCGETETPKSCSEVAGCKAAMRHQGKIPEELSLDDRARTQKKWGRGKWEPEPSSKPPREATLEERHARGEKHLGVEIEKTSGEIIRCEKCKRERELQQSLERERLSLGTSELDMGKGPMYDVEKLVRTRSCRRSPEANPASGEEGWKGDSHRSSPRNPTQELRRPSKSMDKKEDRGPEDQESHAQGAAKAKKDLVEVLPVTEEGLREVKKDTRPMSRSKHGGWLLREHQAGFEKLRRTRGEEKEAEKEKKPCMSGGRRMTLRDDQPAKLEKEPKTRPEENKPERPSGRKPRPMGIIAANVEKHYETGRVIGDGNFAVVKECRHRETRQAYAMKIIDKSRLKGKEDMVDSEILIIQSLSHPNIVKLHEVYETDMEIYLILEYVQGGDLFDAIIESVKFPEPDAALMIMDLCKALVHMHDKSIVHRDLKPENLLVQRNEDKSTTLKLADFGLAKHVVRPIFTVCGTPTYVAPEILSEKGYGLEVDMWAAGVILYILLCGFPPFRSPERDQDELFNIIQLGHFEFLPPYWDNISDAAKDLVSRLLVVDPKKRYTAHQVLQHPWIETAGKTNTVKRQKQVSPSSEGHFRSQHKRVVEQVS", "conditions": "kinase DCLK3; Published KINOMEscan; ref original PKIS2 published data; cited from earlier work"}, "[12]": {"biological_target": "kinases (KINOMEscan panel) (Homo sapiens, UniProt Q9H3Y6)", "conditions": "Published KINOMEscan; ref original PKIS2 published data; cited from earlier work"}}, "data": [{"smiles": "Cc1cccc(-c2nc(Nc3ccncc3)c3ccccc3n2)n1", "note": "[NK215]", "values": [{"measurement": "KINOMEscan RAF1", "setting": "[1]", "result": 39}, {"measurement": "KINOMEscan IGF1R", "setting": "[2]", "result": 0}, {"measurement": "KINOMEscan WEE1", "setting": "[3]", "result": 23}, {"measurement": "KINOMEscan CSK", "setting": "[4]", "result": 4}, {"measurement": "KINOMEscan MAPKAPK2", "setting": "[5]", "result": 0}, {"measurement": "KINOMEscan BLK", "setting": "[6]", "result": 1}, {"measurement": "KINOMEscan PLK1", "setting": "[7]", "result": 6}, {"measurement": "KINOMEscan PRKCD", "setting": "[8]", "result": 29}, {"measurement": "KINOMEscan PIM3", "setting": "[9]", "result": 0}, {"measurement": "KINOMEscan COQ8A", "setting": "[10]", "result": 27}, {"measurement": "KINOMEscan DCLK3", "setting": "[11]", "result": 21}, {"measurement": "KINOMEscan SRMS", "setting": "[12]", "result": 0}]}]}
